Test results as given in article PMC4672351, “Drug-Drug Interaction Potentials of Tyrosine Kinase Inhibitors via Inhibition of UDP-Glucuronosyltransferases” (Scientific Reports, 2015).

Key:
UGT1A6 = biological target: T1, UGT1A6 (Homo sapiens, UniProt P19224); experiment: Inhibition of 4-MU glucuronidation by recombinant UGT1A6; format: in vitro ADME; conditions: recombinant UGT1A6, pH 7.4, probe 4-MU, 100 μM inhibitor, 4-MU substrate, positive control diclofenac, read-out: Remaining activities (%) of UGT1A6
T1 construct: purchased BD Gentest (Woburn, MA); host or cells: baculovirus-infected insect cells
T1 sequence (P19224 27-532): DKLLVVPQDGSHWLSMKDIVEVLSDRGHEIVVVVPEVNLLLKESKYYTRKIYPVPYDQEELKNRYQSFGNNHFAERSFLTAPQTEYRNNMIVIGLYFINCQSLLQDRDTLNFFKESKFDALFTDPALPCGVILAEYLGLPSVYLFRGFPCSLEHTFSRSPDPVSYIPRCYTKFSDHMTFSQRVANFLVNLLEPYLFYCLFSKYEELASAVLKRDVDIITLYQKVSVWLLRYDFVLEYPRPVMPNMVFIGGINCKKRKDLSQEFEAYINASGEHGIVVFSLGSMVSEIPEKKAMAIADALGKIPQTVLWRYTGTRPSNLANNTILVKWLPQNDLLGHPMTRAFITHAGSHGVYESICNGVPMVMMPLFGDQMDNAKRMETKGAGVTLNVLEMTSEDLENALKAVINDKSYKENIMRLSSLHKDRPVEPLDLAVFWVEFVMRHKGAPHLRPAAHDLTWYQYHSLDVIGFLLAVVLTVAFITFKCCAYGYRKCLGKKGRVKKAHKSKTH

UGT1A9 = biological target: T2, UGT1A9 (Homo sapiens, UniProt O60656); experiment: in vitro; conditions: recombinant UGT1A9, pH 7.4, probe 4-MU
T2 sequence (O60656 26-530): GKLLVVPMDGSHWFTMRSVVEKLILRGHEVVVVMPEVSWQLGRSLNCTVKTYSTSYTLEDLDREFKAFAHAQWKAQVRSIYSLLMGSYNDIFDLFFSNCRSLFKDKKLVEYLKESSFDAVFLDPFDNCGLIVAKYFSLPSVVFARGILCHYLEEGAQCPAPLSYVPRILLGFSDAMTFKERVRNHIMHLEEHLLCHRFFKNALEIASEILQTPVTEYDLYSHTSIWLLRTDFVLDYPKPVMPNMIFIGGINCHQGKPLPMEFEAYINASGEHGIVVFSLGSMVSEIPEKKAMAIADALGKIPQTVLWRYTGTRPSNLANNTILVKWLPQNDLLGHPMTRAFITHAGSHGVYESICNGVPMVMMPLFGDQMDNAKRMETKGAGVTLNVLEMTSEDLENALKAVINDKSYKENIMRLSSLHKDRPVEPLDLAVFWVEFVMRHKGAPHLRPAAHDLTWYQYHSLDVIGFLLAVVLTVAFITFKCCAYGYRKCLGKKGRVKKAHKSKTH

UGT1A1 = biological target: T3, UGT1A1 (Homo sapiens, UniProt P22309); experiment: Inhibition of 4-MU glucuronidation by recombinant UGT1A1; conditions: human, recombinant UGT1A1, pH 7.4, probe 4-MU
T3 sequence (P22309 26-533): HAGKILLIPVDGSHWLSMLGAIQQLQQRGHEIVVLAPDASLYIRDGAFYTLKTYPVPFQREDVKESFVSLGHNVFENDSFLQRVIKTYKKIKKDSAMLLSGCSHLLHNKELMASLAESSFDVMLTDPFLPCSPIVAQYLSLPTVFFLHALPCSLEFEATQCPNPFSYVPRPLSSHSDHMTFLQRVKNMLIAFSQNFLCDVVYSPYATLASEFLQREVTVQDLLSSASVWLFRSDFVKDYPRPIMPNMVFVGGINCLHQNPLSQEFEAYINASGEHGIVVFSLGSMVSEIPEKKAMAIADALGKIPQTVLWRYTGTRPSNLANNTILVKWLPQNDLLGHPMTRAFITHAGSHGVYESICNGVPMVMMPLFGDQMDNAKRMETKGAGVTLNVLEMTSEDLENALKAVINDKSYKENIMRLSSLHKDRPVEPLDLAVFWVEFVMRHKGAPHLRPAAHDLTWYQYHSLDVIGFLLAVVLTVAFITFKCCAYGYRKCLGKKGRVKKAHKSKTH

UGT1A7 = biological target: T4, UGT1A7 (Homo sapiens, UniProt Q9HAW7); experiment: Inhibition of 4-MU glucuronidation by recombinant UGT1A7; conditions: human, recombinant UGT1A7, pH 7.4, probe 4-MU
T4 sequence (Q9HAW7 26-530): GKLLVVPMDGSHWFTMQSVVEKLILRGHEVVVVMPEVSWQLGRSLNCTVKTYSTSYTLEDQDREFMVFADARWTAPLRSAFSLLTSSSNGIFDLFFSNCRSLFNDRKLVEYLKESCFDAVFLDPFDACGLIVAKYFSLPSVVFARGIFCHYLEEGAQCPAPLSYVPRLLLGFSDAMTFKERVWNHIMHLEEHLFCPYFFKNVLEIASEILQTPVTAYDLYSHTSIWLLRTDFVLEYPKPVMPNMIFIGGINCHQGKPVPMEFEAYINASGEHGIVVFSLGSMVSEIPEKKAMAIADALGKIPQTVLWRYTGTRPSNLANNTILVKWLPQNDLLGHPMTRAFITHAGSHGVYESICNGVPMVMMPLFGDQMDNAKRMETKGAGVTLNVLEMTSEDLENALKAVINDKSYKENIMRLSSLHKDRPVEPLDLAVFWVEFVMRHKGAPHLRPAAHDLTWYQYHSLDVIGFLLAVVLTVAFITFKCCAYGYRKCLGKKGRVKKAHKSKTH

UGT1A8 = biological target: T5, UGT1A8 (Homo sapiens, UniProt Q9HAW9); experiment: Inhibition of 4-MU glucuronidation by recombinant UGT1A8; conditions: recombinant UGT1A8, pH 7.4, probe 4-MU
T5 sequence (Q9HAW9 26-530): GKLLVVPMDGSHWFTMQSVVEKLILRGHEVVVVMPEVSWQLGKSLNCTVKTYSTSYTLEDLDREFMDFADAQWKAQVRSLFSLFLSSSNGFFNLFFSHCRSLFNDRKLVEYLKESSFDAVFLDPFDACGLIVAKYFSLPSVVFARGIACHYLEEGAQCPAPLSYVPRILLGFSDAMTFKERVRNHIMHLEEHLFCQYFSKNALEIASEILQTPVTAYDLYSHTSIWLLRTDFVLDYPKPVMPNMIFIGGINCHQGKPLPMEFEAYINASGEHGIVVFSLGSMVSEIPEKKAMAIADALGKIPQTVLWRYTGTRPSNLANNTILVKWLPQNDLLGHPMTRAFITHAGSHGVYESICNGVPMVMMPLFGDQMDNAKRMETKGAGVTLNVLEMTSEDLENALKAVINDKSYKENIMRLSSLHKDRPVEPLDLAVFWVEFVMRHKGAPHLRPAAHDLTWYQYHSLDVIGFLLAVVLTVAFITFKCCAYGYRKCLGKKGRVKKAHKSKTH

UGT1A10 = biological target: T6, UGT1A10 (Homo sapiens, UniProt Q9HAW8); experiment: Inhibition of 4-MU glucuronidation by recombinant UGT1A10; conditions: recombinant UGT1A10, pH 7.4, probe 4-MU
T6 sequence (Q9HAW8 26-530): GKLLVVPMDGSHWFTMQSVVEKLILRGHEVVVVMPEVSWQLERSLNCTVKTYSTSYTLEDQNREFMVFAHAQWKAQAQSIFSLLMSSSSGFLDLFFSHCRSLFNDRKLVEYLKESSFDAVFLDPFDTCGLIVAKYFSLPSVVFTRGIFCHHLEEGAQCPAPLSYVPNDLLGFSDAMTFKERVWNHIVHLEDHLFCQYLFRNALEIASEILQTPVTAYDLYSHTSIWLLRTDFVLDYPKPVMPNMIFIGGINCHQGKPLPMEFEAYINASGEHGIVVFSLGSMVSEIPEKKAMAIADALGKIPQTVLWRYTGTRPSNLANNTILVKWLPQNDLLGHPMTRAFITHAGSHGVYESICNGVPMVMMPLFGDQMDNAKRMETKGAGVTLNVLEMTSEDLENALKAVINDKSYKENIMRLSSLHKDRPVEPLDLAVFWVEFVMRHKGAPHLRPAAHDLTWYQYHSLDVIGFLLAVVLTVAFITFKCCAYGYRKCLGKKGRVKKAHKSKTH

UGT1A4 = biological target: T7, UGT1A4 (Homo sapiens, UniProt P22310); experiment: Inhibition of TFP glucuronidation by recombinant UGT1A4; conditions: 100 μM inhibitor; TFP substrate; positive control hecogenin
T7 sequence (P22310 29-534): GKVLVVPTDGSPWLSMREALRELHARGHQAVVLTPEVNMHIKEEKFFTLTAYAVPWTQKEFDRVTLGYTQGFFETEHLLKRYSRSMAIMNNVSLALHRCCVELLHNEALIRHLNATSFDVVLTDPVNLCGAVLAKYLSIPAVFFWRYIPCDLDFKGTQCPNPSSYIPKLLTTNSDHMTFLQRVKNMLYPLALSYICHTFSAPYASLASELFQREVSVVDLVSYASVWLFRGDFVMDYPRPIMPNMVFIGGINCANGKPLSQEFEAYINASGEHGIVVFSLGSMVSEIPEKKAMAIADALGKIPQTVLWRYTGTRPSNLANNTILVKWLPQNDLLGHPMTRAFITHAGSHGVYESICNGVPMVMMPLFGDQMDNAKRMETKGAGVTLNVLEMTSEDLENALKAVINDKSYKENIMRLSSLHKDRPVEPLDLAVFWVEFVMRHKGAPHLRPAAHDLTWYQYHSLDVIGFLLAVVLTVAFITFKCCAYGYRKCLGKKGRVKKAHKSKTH

O=C(O)Cc1ccccc1Nc1c(Cl)cccc1Cl [diclofenac]
activity at 30 min, 100 µM (UGT1A6): 28.2 ± 10% | activity at 30 min, 100 µM (UGT1A9): 15.2 ± 1.2% | activity at 120 min, 100 µM (UGT1A1): 37 ± 2.1% | activity at 30 min, 100 µM (UGT1A7): 25.6 ± 11.2%

CCCCC1C(=O)N(c2ccccc2)N(c2ccccc2)C1=O [phenylbutazone]
activity at 30 min, 100 µM (UGT1A8): 40.2 ± 5.3% | activity at 120 min, 100 µM (UGT1A10): 37.8 ± 8%

hecogenin
Remaining activities (%) of UGT1A4 (UGT1A4): 20.3 ± 6.6%
